Laboratory results reported in patent US9415034B2, “Inhibitors and enhancers of uridine diphosphate-glucuronosyltransferase 2B (UGT2B)” (NATIONAL DEFENSE MEDICAL CENTER, priority 2005, dated 2016).
Values joined by “and” are separate entries in the source; they are usually repeats but may differ in a detail not shown here. Equal values may be shown once. Read-outs that look alike come from different tables or passages of the source.

Tests used:
UGT2B = assay: in vitro
Description: In the following experiment, 27 different kinds of CHEs and 10 different excipients were used as UGT2B inhibitor in this invention. These CHEs are pure compounds available commercially, and were purchased from Sigma Chemical Co., Nacalai Tesque (Kyoto, Japan) and Indofine Chemical Co., Inc. (Somerville, N.J.). These UGT2B inhibitors are dissolved in alcohol at the concentration of 1, 10, 100 μM for the following experiment.
These excipients are dissolved in water and make up to 0.5%, 5%, 50% (wt %, w/v) for the following experiment. (Note: BRIJ is a registered trademark of ICI Americas, Inc.; Pluronic is a registered trademark of BASF Corporation.)
The Sprague-Dawley male rats, weighted 300-400 g are used as model animals in these experiments. The microsome is prepared as follows: • i. Sacrifice a rat after 12-16 hours fasting, take its liver; wipe dry the liver and weigh it. • ii. Add 300% (by volume) of cold 0.3M sucrose solution, and homogenize the liver. • iii. Centrifuge the homogenized liver suspension at 9000×g speed (KS-800, Kubota, made in Japan) for 10 min at 4° C. Collect the supernatant. • iv. Centrifuge the supernatant at 105,000×g speed (L8-60M, Beckman, made in USA) for 60 min at 4° C. • v. Remove the supernatant, add 0.3M sucrose (of the same volume) and repeat the homogenization. The homogenized liver suspension is the microsome. Store the microsome at −70° C.
Thaw the microsome before use. Add 5 μl/ml BRIJ®35 (Fisher et al. 2000, Drug Metabolism & Disposition. 28(5):560-6) into microsome by a ratio of microsome:BRIJ®35=8:1 (v/v).
The protein amount is determined as follows: • i. Take 0.1 ml microsome and dilute to 5 ml 0.85% NaCl (50-fold dilution, v/v). Take 0.2 ml of the diluted microsome and place it in a capped test tube (triple experiments). Separately, replacing microsome with 0.2 ml NaCl as the control. • ii. Add 2.2 ml Biuret regent (SIGMA, 690-A) into each test tube, mix well and store at room temperature for 10 min. • iii. Add 0.1 ml folin regent (SIGMA, 690-A), mix immediately, and store at room temperature for 30 min. Measure the absorbance at 550 nm wave length within the 30 min. Measure the concentration of protein in microsome based on the standard curve generated by various bovine albumin concentration and absorbance. 4. The Measurement of the Inhibition of UGT2B Activity in vitro • i. […] Mix solution (A) and 17 μl solution (B) thoroughly, place in a 37° C. water bath and shake at 125 rpm for 60 min. • iii. Add 1 ml ACN to interrupt the reaction. • iv. Centrifuge at 130,000×g speed at 4° C. for 5 min, and • v. […] 5.
Set the Ultra-violet detector's (SPD-10A, Shimadzu, Kyoto, made in Japan) wave length to 210 nm.
Those CHEs are commercially available pure compounds, acquired from Sigma Chemical Co., Nacalai Tesque (Kyoto, Japan) and […] (Somerville, N.J.). Their categories, names, sources, and chemical compositions are described in Table 5.

[1] = SD rat
[2] = SD rat, intravenous nalbuphine, with or without capillarisin, Mean ± SE, n = 6
in vivo [3] = settings: male, Sprague-Dawley, rat, serum, po
in vivo [4] = settings: male, Sprague-Dawley, rat, serum, iv, 1 mg/Kg
[5] = in vivo; cited from earlier work
[6] = male, Sprague-Dawley, rat, % Inhibition (Mean ± SD)
[7] = oral nalbuphine 100 mg/Kg, with or without capillarisin 4 mg/Kg, Mean ± SE, n = 6
[8] = Table 6, enhancer 8.5 μM, negative = enhancement
[9] = Table 6, enhancer 85 μM, negative = enhancement
[10] = Table 6, enhancer 850 μM, negative = enhancement
[11] = male, Sprague-Dawley, rat, inhibition rate on the metabolism of nalbuphine in microsome

Row | Compound | inhibition at 60 min, 8.5 μM (UGT2B; [6]) | inhibition at 60 min, 85 μM (UGT2B; [6]) | inhibition at 60 min, 850 μM (UGT2B; [6]) | inhibition at 60 min, 8.5 µM (UGT2B; [6]) | inhibition at 60 min, 85 µM (UGT2B; [6]) | inhibition at 60 min, 850 µM (UGT2B; [6]) | also measured
1 | O=C(O)/C=C/c1ccccc1 [trans-cinnamic acid, Trans-Cinnamic Acid] | -153 ± 24.9% | -109 ± 18.6% | -135 ± 3.9% | – | – | – | –
2 | Oc1ccc2c3c1O[C@H]1[C@@H](O)CC[C@@]4(O)[C@@H](C2)N(CC2CCC2)CC[C@]314 [Nalbuphine, nalbuphine] | – | – | – | – | – | – | AUC(total) [1, 7]: 24356 ± 8865 ng·min/mL; k [1, 7]: 0.0027 ± 0.0007 min⁻¹; absolute bio-availability of orally administered nalbuphine ([1]; oral nalbuphine with or without capillarisin): 5% and 12.759±4.64%; AUC(total) [2]: 1909 ± 330 ng·min/mL; CL/F [2]: 50.6 ± 14.1 L/h/kg; k [2]: 0.016 ± 0.004 min⁻¹; AUC(total) ([2]; listed as nalbuphine): 7135 ± 1218 ng·min/mL; Cmax (in vivo [3]; 100 mg/Kg): 79.3 ± 18 ng/mL; Tmax (in vivo [3]; 100 mg/Kg): 1.62 h; AUC(0-t) (in vivo [3]; 100 mg/kg): 357 ng·h/mL; CL/F (in vivo [3]; 100 mg/kg): 350 ± 62.9 L/h/kg; Cmax (in vivo [3]; 100 mg/kg): 79 ± 18 ng/mL; MRT (in vivo [3]; 100 mg/kg): 8.27 h; half-life (in vivo [3]; 100 mg/kg): 5.53 ± 1.03 h; AUC(0-t) (in vivo [4]): 28.8 ng·h/mL; Cmax (in vivo [4]): 154 ± 30 ng/mL; MRT (in vivo [4]): 0.983 h; half-life (in vivo [4]): 1.28 ± 0.483 h; half life through the excretion of liver [5]: 5 h
3 | O=C1C[C@@H](c2ccc(O[C@@H]3O[C@H](CO)[C@@H](O)[C@H](O)[C@H]3O)cc2)Oc2cc(O)ccc21 [liquiritin, Liquiritin] | -9.38 ± 1.8% | -17.7 ± 8.51% | -29.2 ± 2.74% | – | – | – | –
4 | COc1ccc([C@@H]2CC(=O)c3c(O)cc(O[C@@H]4O[C@H](CO)[C@@H](O)[C@H](O)[C@H]4O[C@@H]4O[C@@H](C)[C@H](O)[C@@H](O)[C@H]4O)cc3O2)cc1 [poncirin, Poncirin] | – | – | – | – | – | – | % Inhibition (Mean ± SD) (UGT2B; [8]): −16.068 ± 8.122%; % Inhibition (Mean ± SD) (UGT2B; [9]): −8.448 ± 8.261%; % Inhibition (Mean ± SD) (UGT2B; [10]): −7.098 ± 18.196%
5 | CCCCCCCCCCCCO [lauryl alcohol, Lauryl Alcohol] | – | – | – | 14.4 ± 3.37% | 19.5 ± 3.46% | 6.23 ± 6.75% | –
6 | COc1ccc([C@@H]2CC(=O)c3c(O)cc(O[C@@H]4O[C@H](CO)[C@@H](O)[C@H](O)[C@H]4O[C@@H]4O[C@@H](C)[C@H](O)[C@@H](O)[C@H]4O)cc3O2)cc1O [neohesperidin, Neohesperidin] | – | – | – | – | – | – | % Inhibition (Mean ± SD) (UGT2B; [8]): −66.586 ± 9.614%; % Inhibition (Mean ± SD) (UGT2B; [9]): −113.63 ± 8.986%; % Inhibition (Mean ± SD) (UGT2B; [10]): −113.46 ± 16.721%
7 | O=C/C=C/c1ccccc1 [trans-cinnamaldehyde, Trans- Cinnamaldehyde] | -6.97 ± 3.78% | -3.1 ± 9.46% | 18.3 ± 10.3% | -6.97 ± 3.78% | -3.1 ± 9.46% | 18.3 ± 10.3% | –
8 | O=c1c(-c2ccc(O)cc2)coc2cc(O)cc(O)c12 [genistein, Genistein] | – | – | – | – | – | – | inhibition at 60 min, 8.5 µM (UGT2B; male, Sprague-Dawley, rat): 15.6 ± 6.05%; inhibition at 60 min, 8.5 μM (UGT2B; male, Sprague-Dawley, rat): 15.6 ± 6.05%; inhibition at 60 min, 85 µM (UGT2B; male, Sprague-Dawley, rat): 5.73 ± 6.41%; inhibition at 60 min, 85 μM (UGT2B; male, Sprague-Dawley, rat): 5.73 ± 6.41%; inhibition at 60 min, 850 µM (UGT2B; male, Sprague-Dawley, rat): -9.2 ± 5.18%; inhibition at 60 min, 850 μM (UGT2B; male, Sprague-Dawley, rat): -9.2 ± 5.18%
9 | C=C(C)C1CC=C(C)CC1 (single isomer, unassigned; (+)) [(+)-limonene, (+)-Limonene] | – | – | – | 18.3 ± 0.793% | 45.3 ± 7.84% | 44.2 ± 2.28% | inhibition at 60 min (UGT2B; [11]): ≥ 30%
10 | O=c1ccc2ccc(O)cc2o1 [umbelliferone, Umbelliferone] | -14.7 ± 5.81% | 4.6 ± 8.24% | -20.6 ± 18.2% | -14.7 ± 5.81% | 4.6 ± 8.24% | -20.6 ± 18.2% | –
11 | COc1cc(-c2oc3cc(O)cc(O)c3c(=O)c2O)ccc1O [isorhamnetin, Isorhamnetin] | – | – | – | – | – | – | inhibition at 60 min (UGT2B; male, Sprague-Dawley, rat): ≥ 30%; inhibition at 60 min, 8.5 µM (UGT2B; male, Sprague-Dawley, rat): 88.4 ± 11.6%; inhibition at 60 min, 85 µM (UGT2B; male, Sprague-Dawley, rat): 85.1 ± 14.7%; inhibition at 60 min, 850 µM (UGT2B; male, Sprague-Dawley, rat): 107 ± 8.1%
12 | O=c1cc(-c2ccc(O)cc2)oc2cc(O)cc(O)c12 [apigenin, Apigenin] | -26.7 ± 13.1% | 54 ± 15.8% | -16.1 ± 17.9% | -26.7 ± 13.1% | 54 ± 15.8% | -16.1 ± 17.9% | –
13 | Oc1cc(O)c2c(c1)OC(c1ccc(O)c(O)c1)[C@@H](O)C2 (single isomer, unassigned; (+)) [(+)-epicatechin, (+)-Epicatechin] | – | – | – | – | – | – | % Inhibition (Mean ± SD) (UGT2B; male, Sprague-Dawley, rat, 60 min, 8.5 μM): −32.553 ± 1.578%; % Inhibition (Mean ± SD) (UGT2B; male, Sprague-Dawley, rat, 60 min, 85 μM): −47.075 ± 0.533%; % Inhibition (Mean ± SD) (UGT2B; male, Sprague-Dawley, rat, 60 min, 850 μM): −8.118 ± 1.256%
14 | COc1ccc(-c2coc3cc(O)ccc3c2=O)cc1 [formononetin, Formononetin] | -86.5 ± 3.49% | -31.5 ± 4.78% | -24.7 ± 4.42% | – | – | – | –
15 | CCCCCCCCCCCCCC(=O)OCC [ethyl myristate, Ethyl Myristate] | -27.8 ± 14.7% | -12.1 ± 5.71% | 6.33 ± 1.48% | -27.8 ± 14.7% | -12.1 ± 5.71% | 6.33 ± 1.48% | –
16 | O=c1c(O)c(-c2ccc(O)c(O)c2)oc2cc(O)cc(O)c12 [quercetin, Quercetin] | -81.4 ± 5.59% | -143 ± 18.5% | -119 ± 19.4% | – | – | – | –
17 | COc1c(O)cc2oc(Oc3ccc(O)cc3)cc(=O)c2c1O [capillarisin, Capillarisin] | – | – | – | 111 ± 21.8% | 105 ± 21.8% | 105 ± 19.3% | inhibition at 60 min (UGT2B; [11]): 111%
18 | C=C[C@H]1[C@H](O[C@@H]2O[C@H](CO)[C@@H](O)[C@H](O)[C@H]2O)OC=C2C(=O)OCC[C@]21O [swertiamarin, Swertiamarin] | – | – | – | – | – | – | % Inhibition (Mean ± SD) (UGT2B; Table 2, inhibitor 8.5 μM, metabolism of nalbuphine in rat liver microsome): 28.239 ± 2.248%; % Inhibition (Mean ± SD) (UGT2B; Table 2, inhibitor 85 μM, metabolism of nalbuphine in rat liver microsome): 27.930 ± 4.129%; % Inhibition (Mean ± SD) (UGT2B; Table 2, inhibitor 850 μM, metabolism of nalbuphine in rat liver microsome): −2.499 ± 6.899%
19 | COc1cc(O)c2c(=O)cc(-c3ccc(O)cc3)oc2c1 [genkwanin] | -27 ± 4.51% | -77.7 ± 20.7% | -43.2 ± 18.8% | – | – | – | –
20 | O=C1CC(c2ccc(O)c(O)c2)Oc2cc(O)cc(O)c21 (centres unmarked) [eriodictyol, Eriodictyol] | -1.06 ± 3.71% | -17.1 ± 2.3% | 14.1 ± 2.88% | -1.06 ± 3.71% | -17.1 ± 2.3% | 14.1 ± 2.88% | inhibition at 60 min (UGT2B; [11]): ≥ 30%
21 | Oc1cc(O)c2c(c1)OC(c1ccc(O)c(O)c1)[C@@H](O)C2 (single isomer, unassigned; (+)) [(+)-catechin, (+)-Catechin] | -68.4 ± 7.34% | -54.8 ± 9.38% | -65.3 ± 47% | – | – | – | –
22 | C[C@@H]1O[C@@H](OC[C@H]2O[C@@H](Oc3c(-c4ccc(O)c(O)c4)oc4cc(O)cc(O)c4c3=O)[C@H](O)[C@@H](O)[C@@H]2O)[C@H](O)[C@H](O)[C@H]1O [rutin, Rutin] | – | – | – | – | – | – | % Inhibition (Mean ± SD) (UGT2B; [8]): −19.854 ± 19.742%; % Inhibition (Mean ± SD) (UGT2B; [9]): −29.414 ± 29.485%; % Inhibition (Mean ± SD) (UGT2B; [10]): −33.458 ± 13.373%
23 | CC12CCC(CC1)C(C)(C)O2 [cineole, Cineole] | -8.41 ± 18.6% | -12.1 ± 6.68% | 58.9 ± 8.56% | -8.41 ± 18.6% | -12.1 ± 6.68% | 58.9 ± 8.56% | –
24 | O=c1c(-c2ccc(O)cc2)coc2cc(O)ccc12 [daidzein, Daidzein] | -128 ± 20.8% | -138 ± 4.62% | – | – | – | – | inhibition at 60 min, 425 μM (UGT2B; [6]): -138 ± 2.31%
